The source of these data is ChEMBL document CHEMBL1201862, “PubChem BioAssay data set” (2004).

In general, EC50 refers to the concentration giving half of the maximal effect.

Activity calls are given as the source filed them.

Test [1] is described as follows: Luminescence Cell-Based Dose Retest to Confirm Activators of 5'UTR Stem-Loop Driven Alpha-Synuclein mRNA Translation in H4 Neuroglioblastoma Cells. [Related pubchem assays (depositor defined):AID1813, AID1829]. Type of test: functional.
Test [2] can be described thus: Luminescence Cell-Based Dose Response HTS to Identify Activators of 5'UTR Stem-Loop Driven Prion Protein mRNA Translation in H4-C Neuroglioblastoma Cells. [Related pubchem assays: 1829 (Project Summary), 1814 (Primary HTS)]. It counts as functional.
Test [3] in a line: A cytotoxicity screen of small molecule inhibitors of the PhoP region in Salmonella typhi identified in the primary screen. [Related pubchem assays: 1850, 1864, 1985 ]. It counts as functional.
Test [4] can be described thus: Luminescence Cell-Based Dose Response HTS to Identify Activators of Luciferase Translation or Activity in H4 […] Cells. [Related pubchem assays: 1829 (Project Summary), 1814 (Primary HTS)]. It counts as functional.
Test [5] can be described thus: NIH3T3 cell viability loss – ATP luminescence, mouse fibroblasts, counter-screen, dose response (AID 2010).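 Further: cells exposed to compound for about 90 hours before reading.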 Type of test: functional, cell-based. (A counterscreen serves to expose hits that act by an unwanted route or on another target.)
The nature of test [6]: Luminescence Cell Based Dose Confirmation HTS to Identify Activators of 5'UTR Stem-Loop Driven Alpha-Synuclein mRNA Translation in H4 Neuroglioblastoma Cells. [Related pubchem assays (depositor defined):AID1813, AID1829]. To be noted: Homo sapiens. Type of test: functional.
Test [7] has as its target T1, Heat shock factor protein 1 (Mus musculus, UniProt P38532).
T1 sequence (P38532 whole entry): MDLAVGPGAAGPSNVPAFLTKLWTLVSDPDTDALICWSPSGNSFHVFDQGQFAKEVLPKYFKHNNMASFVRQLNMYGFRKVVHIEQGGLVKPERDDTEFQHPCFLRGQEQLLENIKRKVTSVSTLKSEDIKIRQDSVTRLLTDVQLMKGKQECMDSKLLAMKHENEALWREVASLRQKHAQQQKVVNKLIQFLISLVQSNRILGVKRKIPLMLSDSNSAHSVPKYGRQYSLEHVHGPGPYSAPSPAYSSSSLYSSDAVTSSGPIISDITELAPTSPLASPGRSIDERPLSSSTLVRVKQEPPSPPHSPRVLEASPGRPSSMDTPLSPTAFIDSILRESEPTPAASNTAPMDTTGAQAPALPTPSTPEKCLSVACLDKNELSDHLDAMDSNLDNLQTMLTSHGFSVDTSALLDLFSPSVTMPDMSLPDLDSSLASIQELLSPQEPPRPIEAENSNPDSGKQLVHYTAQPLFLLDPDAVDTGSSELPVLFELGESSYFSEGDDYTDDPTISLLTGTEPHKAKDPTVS
The test is described as follows: enhancement of HSF1-driven luciferase signal – cell-based, NIH3T3, luminescence, dose retest, confirmation (AID 435004).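 Further: stress induced by proteasome inhibitor MG132 added 30 min after compound; luciferase reporter driven by HSF1 response element in NIH3T3 cells; actives raise luminescence as potentiators of the MG132 stress response.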 It counts as functional.

Test [8] concerns the target T2, SUMO-activating enzyme (Homo sapiens, UniProt Q9UBT2). The test is described as follows: blockers of UBC9-mediated SUMO conjugation – biochemical, AlphaScreen, SUMOylation inhibitor project, confirmation (AID 2018). It counts as functional. Background: In Alpha technology, singlet oxygen from a donor bead excites a nearby acceptor bead.
Test [9] addresses Large T antigen (Simian virus 40, UniProt P03070). Type of test: functional, Betapolyomavirus macacae.
Test [10] addresses T2, SUMO-activating enzyme. As to the kind of experiment: blockers of SAE1/SAE2–UBC9 SUMO transfer – biochemical, HTRF, uHTS, primary screen (AID 2006). Type of test: protein-complex assay.
Test [11] deals with Genome polyprotein (dengue virus type 2, UniProt P29990). As to the kind of experiment: flavivirus cap methylation enzyme inhibition – biochemical, confirmation dose response, primary screen (AID 588689). It counts as functional.
Chain of Genome polyprotein (P29990 2492-3391 limits assumed): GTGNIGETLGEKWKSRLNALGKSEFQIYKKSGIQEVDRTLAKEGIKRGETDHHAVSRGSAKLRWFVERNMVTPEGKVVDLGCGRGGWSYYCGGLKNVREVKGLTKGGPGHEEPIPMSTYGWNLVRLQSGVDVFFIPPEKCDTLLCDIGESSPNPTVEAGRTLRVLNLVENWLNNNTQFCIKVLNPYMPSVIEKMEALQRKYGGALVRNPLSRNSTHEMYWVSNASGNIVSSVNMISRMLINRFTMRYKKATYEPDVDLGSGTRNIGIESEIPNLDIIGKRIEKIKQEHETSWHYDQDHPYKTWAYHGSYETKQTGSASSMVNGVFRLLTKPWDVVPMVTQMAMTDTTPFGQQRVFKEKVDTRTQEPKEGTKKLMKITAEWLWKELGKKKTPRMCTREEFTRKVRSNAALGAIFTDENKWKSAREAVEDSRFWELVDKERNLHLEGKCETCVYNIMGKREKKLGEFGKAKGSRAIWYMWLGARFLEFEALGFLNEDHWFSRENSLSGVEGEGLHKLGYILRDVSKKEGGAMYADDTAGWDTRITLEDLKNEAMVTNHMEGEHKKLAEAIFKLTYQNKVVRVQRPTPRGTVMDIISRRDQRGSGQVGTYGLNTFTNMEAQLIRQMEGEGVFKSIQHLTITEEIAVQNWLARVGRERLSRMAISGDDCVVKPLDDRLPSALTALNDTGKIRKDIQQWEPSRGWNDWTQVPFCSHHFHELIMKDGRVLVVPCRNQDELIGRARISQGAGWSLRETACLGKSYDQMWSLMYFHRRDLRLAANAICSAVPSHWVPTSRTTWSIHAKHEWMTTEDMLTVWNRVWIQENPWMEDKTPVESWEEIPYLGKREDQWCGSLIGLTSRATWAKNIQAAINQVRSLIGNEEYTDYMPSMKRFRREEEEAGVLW
Test [12] addresses Small ubiquitin-related modifier 1 (Homo sapiens, UniProt P63165). As to the kind of experiment: SUMO1 protein-protein binding blockers, potency – biochemical, FRET, dose response (AID 624383). Type of test: functional. To be noted: read-out: IC50_Mean.
Test [13] concerns the target T3, Caspase-3 (Homo sapiens, UniProt P42574).
T3 sequence (P42574 whole entry): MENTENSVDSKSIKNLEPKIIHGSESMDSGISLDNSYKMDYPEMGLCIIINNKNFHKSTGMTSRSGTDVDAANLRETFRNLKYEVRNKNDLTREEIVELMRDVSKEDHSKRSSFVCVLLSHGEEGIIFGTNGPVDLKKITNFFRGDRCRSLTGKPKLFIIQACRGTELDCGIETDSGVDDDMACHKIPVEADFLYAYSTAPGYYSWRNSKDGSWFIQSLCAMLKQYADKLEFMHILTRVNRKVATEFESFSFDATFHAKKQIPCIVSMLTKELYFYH
The test is described as follows: SAR Analysis of small molecule inhibitors of Sentrin-specific proteases (SENPs) using a Caspase-3 Selectivity assay. [Related pubchem assays (depositor defined):AID2540, AID2599, AID434973, AID489001]. It counts as functional.

For test [14], the target named is T4, Sentrin-specific protease 6 (Homo sapiens, UniProt Q9GZR1).
T4 sequence (Q9GZR1 whole entry): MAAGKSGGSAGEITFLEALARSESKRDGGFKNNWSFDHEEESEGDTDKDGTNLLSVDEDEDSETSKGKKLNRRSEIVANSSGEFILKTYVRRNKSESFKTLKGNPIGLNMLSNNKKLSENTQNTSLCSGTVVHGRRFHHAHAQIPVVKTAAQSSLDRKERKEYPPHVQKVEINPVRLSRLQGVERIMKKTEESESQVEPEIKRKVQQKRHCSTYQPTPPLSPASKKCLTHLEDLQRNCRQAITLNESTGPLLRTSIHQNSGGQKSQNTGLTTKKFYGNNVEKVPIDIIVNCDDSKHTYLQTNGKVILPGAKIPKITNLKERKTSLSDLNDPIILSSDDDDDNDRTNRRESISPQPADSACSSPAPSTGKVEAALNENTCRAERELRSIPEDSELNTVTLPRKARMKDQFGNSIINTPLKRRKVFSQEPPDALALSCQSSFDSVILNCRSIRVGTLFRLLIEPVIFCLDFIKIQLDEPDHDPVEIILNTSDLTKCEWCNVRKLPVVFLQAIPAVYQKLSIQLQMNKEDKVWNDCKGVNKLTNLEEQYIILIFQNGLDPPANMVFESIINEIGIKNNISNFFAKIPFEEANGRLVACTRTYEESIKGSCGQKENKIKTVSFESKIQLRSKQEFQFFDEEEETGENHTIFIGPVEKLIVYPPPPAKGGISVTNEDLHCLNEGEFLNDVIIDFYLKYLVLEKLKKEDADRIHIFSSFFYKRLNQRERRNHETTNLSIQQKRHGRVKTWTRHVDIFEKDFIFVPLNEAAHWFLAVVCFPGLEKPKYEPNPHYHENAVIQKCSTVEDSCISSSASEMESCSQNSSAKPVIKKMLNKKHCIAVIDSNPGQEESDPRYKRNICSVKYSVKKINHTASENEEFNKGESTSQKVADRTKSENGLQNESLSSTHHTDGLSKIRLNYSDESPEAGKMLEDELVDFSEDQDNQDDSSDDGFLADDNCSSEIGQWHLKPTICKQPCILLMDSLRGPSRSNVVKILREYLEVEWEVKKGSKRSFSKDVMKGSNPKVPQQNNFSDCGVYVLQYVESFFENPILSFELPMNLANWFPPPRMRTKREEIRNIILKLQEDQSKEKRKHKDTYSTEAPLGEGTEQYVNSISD
The test is described as follows: SAR Analysis of small molecule inhibitors of Sentrin-specific protease 6 (SENP6) using a Luminescent assay. [Related pubchem assays (depositor defined):AID2582, AID2599]. It counts as functional.

T2 sequence (Q9UBE0 whole entry): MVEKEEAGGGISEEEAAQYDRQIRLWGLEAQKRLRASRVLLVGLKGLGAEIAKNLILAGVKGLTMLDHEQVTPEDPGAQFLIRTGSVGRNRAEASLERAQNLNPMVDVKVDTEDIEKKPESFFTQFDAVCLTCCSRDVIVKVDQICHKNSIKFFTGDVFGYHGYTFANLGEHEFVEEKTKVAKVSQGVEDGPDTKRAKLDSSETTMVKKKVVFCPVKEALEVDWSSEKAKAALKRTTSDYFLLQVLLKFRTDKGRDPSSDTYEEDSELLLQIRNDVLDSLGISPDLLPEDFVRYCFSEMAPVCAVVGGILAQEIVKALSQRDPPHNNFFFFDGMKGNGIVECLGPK
T2 sequence (Q9UBT2 whole entry): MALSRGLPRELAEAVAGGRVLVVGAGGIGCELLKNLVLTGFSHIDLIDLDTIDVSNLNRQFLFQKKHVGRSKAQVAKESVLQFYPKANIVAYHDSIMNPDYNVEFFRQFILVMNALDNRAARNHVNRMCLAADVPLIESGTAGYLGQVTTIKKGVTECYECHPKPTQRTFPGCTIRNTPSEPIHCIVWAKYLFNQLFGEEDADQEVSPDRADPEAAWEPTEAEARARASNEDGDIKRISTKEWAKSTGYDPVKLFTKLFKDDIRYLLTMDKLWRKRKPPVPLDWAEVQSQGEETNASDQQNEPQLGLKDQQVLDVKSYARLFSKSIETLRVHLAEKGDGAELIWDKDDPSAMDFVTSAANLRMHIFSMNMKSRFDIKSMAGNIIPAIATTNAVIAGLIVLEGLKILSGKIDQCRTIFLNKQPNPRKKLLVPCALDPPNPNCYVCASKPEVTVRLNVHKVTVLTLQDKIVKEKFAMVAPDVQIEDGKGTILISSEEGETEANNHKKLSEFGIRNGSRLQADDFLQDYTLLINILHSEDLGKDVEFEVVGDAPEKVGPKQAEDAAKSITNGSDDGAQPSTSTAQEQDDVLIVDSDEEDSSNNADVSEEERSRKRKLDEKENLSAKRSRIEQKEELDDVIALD
Chain of Large T antigen (P03070 whole entry): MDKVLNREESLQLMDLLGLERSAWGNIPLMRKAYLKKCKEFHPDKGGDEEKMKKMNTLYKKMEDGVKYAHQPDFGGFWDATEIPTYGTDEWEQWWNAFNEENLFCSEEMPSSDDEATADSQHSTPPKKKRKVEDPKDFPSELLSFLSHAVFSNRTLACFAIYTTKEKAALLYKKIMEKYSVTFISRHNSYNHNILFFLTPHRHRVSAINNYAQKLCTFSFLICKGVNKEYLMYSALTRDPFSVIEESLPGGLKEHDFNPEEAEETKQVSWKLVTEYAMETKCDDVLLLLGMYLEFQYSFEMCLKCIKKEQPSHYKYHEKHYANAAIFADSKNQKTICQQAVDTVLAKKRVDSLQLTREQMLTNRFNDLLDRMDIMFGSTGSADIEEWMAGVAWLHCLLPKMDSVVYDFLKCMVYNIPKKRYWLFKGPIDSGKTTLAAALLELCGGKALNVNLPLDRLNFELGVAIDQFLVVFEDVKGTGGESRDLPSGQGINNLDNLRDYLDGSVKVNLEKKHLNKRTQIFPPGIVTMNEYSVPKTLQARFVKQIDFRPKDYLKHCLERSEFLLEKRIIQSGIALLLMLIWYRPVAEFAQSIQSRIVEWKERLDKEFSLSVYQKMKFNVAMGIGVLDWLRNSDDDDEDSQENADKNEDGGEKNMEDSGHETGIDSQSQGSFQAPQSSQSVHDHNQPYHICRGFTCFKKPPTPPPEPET
Chain of Small ubiquitin-related modifier 1 (P63165 whole entry): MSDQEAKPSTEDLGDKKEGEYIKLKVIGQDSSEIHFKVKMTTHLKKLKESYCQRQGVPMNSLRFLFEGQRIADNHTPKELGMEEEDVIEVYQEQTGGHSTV

As for `c1ccc2c(Nc3nnc(-c4ccncc4)s3)cccc2c1`, the EC50 in test [1] is 2.04 µM (active); in test [2], 40 µM (active); in test [3] it was > 50 µM (active); in [4] it was > 120 µM (not active); in [5], > 60 µM (not active); in test [6] it was 2.02 µM (active). Further, in test [7], the concentration giving a half-maximal response (EC50) is 42.1 µM (active).
Take `N#Cc1c(O)nc(SCC(=O)N2c3ccccc3Sc3ccccc32)nc1-c1ccccc1`: the IC50 in test [8] is 5.15 µM (active); in test [9] it was 52.7 µM (active); in test [10], 14.3 µM (active); in test [11] it was 38.9 µM (active); in test [12] it was 19.8 µM (active).
For the compound `COc1cc(C(=O)c2nccc3cc(OC)c(OC)cc23)c([N+](=O)[O-])cc1OC`, the IC50 was > 99 µM (inactive) in test [13] and 66.8 µM (active) in [14].
